Results on 11 compounds are retold here after ChEMBL document CHEMBL5154823, “Amphiphilic cyclic peptide [W4KR5]-Antibiotics combinations as broad-spectrum antimicrobial agents” (Eur J Med Chem, 2022).

For data set [1], the system named is Klebsiella pneumoniae. In words: Antibacterial activity against imipenem resistant Klebsiella pneumoniae ATCC BAA 1705 assessed as reduction in microbial growth incubated for 24 hrs by microbroth dilution method. Format: functional. For orientation: Broth dilution looks for growth in wells or tubes with falling amounts of substance.
For data set [2], the system named is Staphylococcus aureus. In words: Antibacterial activity against Methicillin resistant Staphylococcus aureus ATCC BAA -1556 assessed as reduction in microbial growth incubated for 24 hrs by microbroth dilution method. Format: functional.
In data set [3] the test system is Pseudomonas aeruginosa. In words: Antibacterial activity against Pseudomonas aeruginosa ATCC 27883 assessed as reduction in microbial growth incubated for 24 hrs by microbroth dilution method. Format: functional.
Data set [4] concerns Escherichia coli. In words: Antibacterial activity against Escherichia coli ATCC 25922 assessed as reduction in microbial growth incubated for 24 hrs by microbroth dilution method. Format: functional.
The test system of data set [5] is Cell membrane. In words: Induction of membrane disruption in Pseudomonas aeruginosa ATCC BAA 1744 assessed as increase in PI positive cells at 4 times of MIC incubated for 2 hrs by Propidium iodide staining based FACS cytometry analysis relative to control. Format: subcellular.
The subject of data set [6] is Klebsiella pneumoniae. In words: Antibacterial activity against Klebsiella pneumoniae ATCC 13883 assessed as reduction in microbial growth incubated for 24 hrs by microbroth dilution method. Format: functional.
In data set [7] the test system is Pseudomonas aeruginosa. In words: Antibacterial activity against carbapenem resistant Pseudomonas aeruginosa ATCC BAA 1744 assessed as reduction in microbial growth incubated for 24 hrs by microbroth dilution method. Format: functional.
For data set [8], the system named is HEK293. In words: Cytotoxicity against HEK293 cells assessed as effect on cell viability at 10 ug/ml incubated for 24 hrs by microplate reader analysis. Format: toxicity, cell-based. As to conditions: human, hek293, 24 h, dose 10 µg/ml.
The subject of data set [9] is Staphylococcus aureus. In words: Antibacterial activity against Staphylococcus aureus ATCC 29213 assessed as reduction in microbial growth incubated for 24 hrs by microbroth dilution method. Format: functional.
Data set [10] has as its system Cell membrane. In words: Induction of membrane disruption in Staphylococcus aureus ATCC BAA -1556 assessed as increase in PI positive cells at 4 times of MIC incubated for 2 hrs by Propidium iodide staining based FACS cytometry analysis relative to control. Format: subcellular.
Data set [11] is described as follows: Hemolytic activity in human Red blood cell incubated for 2 hrs by spectrophotometric analysis. Format: toxicity, cell-based, Erythrocyte. As to conditions: red blood cells (erythrocytes).
For data set [12], the system named is HepaRG. In words: Cytotoxicity against human HepaRG cells assessed as assessed as reduction in cell viability at 10 ug/ml incubated for 24 hrs by microplate reader analysis. Format: toxicity, cell-based. Conditions: dose 10 µg/ml.
Data set [13] is described as follows: Cytotoxicity against HEK293 cells assessed as effect on cell viability at 10 to 25 ug/ml incubated for 24 hrs by microplate reader analysis relative to control. Format: toxicity, cell-based. As to conditions: human, at 10 to 25 µg/mL, dose 10-25 µg/ml, read-out: Activity.
For data set [14], the system named is Escherichia coli. In words: Antibacterial activity against carbapenem and NDM-1 positive resistant Escherichia coli ATCC BAA 2452 assessed as reduction in microbial growth incubated for 24 hrs by microbroth dilution method. Format: functional.
Data set [15] deals with HepaRG. In words: Cytotoxicity against human HepaRG cells assessed as assessed as reduction in cell viability at 50 to 150 ug/ml incubated for 24 hrs by microplate reader analysis relative to control. Format: toxicity, cell-based. As to conditions: at 50 to 150 µg/mL, dose 50-150 µg/ml.
For data set [16], the system named is Pseudomonas aeruginosa. In words: Bactericidal activity against Pseudomonas aeruginosa ATCC BAA 1744 assessed as decrease of bacterial growth at MIC measured after 24 hrs by Time kill assay. Format: functional, organism-based.
Data set [17] has as its system HEK293. In words: Cytotoxicity against HEK293 cells assessed as effect on cell viability at 10 to 200 ug/ml incubated for 24 hrs by microplate reader analysis. Format: toxicity, cell-based. Conditions: human, hek293, 24 h, dose 10-200 µg/ml.
In data set [18] the test system is Cell membrane. In words: Induction of membrane disruption in Pseudomonas aeruginosa ATCC BAA 1744 assessed as increase in PI positive cells at MIC incubated for 2 hrs by Propidium iodide staining based FACS cytometry analysis relative to control.
The subject of data set [19] is Cell membrane. In words: Induction of membrane disruption in Staphylococcus aureus ATCC BAA -1556 assessed as increase in PI positive cells at MIC incubated for 2 hrs by Propidium iodide staining based FACS cytometry analysis relative to control.
Data set [20] concerns Escherichia coli. In words: Bactericidal activity against Escherichia coli ATCC BAA 2452 assessed as decrease of bacterial growth at MIC measured after 15 hrs by Time kill assay. Format: functional, organism-based.
Data set [21] has as its system Staphylococcus aureus. In words: Bactericidal activity against methicillin resistant Staphylococcus aureus ATCC BAA 1556 assessed as reduction in bacterial growth at MIC measured after 16 hrs by Time kill assay. Format: functional, organism-based.

As a reminder, the MIC is the smallest concentration in the dilution series that meets the test's criterion for growth inhibition. What is called HC50 is the concentration giving 50% haemolysis. A higher HC50 goes with weaker haemolysis.

Activity calls are given as the source filed them. Where a SMILES comes first, the peptide text is derived from it. Bridges are numbered along the chain shown (N, C = ends). [ ]: non-standard residue; d: D form. The star is where a group is joined. X1 = C[C@H](O)[C@H]1C(=O)N2C(C(=O)*)=C(S[C@@H]3CN[C@H](C(=O)N(C)C)C3)[C@@H](C)[C@H]12; X2 = CC[C@H](C)CCCCC(=O)*; Dab = NCC[C@H](N)C(=O)O

On to `NC[C@H]1O[C@H](O[C@H]2[C@H](O)[C@@H](O[C@H]3O[C@H](CO)[C@@H](O)[C@H](N)[C@H]3O)[C@H](N)C[C@@H]2N)[C@H](N)C[C@@H]1O` [TOBRAMYCIN], for which the MIC in the data set on Klebsiella pneumoniae [1] was 16 µg/mL; with Staphylococcus aureus [2] it was 0.5 µg/mL; in the data set with Pseudomonas aeruginosa [3], 0.5 µg/mL; in the data set with Escherichia coli [4] it was 8 µg/mL.

On to `CN(C)[C@@H]1C(O)=C(C(N)=O)C(=O)[C@@]2(O)C(O)=C3C(=O)c4c(O)cccc4[C@@](C)(O)[C@H]3C[C@@H]12` [TETRACYCLINE], for which the MIC with Klebsiella pneumoniae [1] is 16 µg/mL; in the data set on Staphylococcus aureus [2] it was 0.25 µg/mL; in the data set on Pseudomonas aeruginosa [3], 32 µg/mL; with Escherichia coli [4], 8 µg/mL.

With `C[C@H]1COc2c(N3CCN(C)CC3)c(F)cc3c(=O)c(C(=O)O)cn1c23.C[C@H]1COc2c(N3CCN(C)CC3)c(F)cc3c(=O)c(C(=O)O)cn1c23.O` [LEVOFLOXACIN], the MIC in the data set on Klebsiella pneumoniae [1] is 64 µg/mL; with Staphylococcus aureus [2], more than 128 µg/mL; in the data set on Escherichia coli [4], 64 µg/mL.

As to `CCC[C@@H]1C[C@@H](C(=O)N[C@@H]([C@H]2O[C@H](SC)[C@H](O)[C@@H](O)[C@H]2O)[C@H](C)Cl)N(C)C1` [CLINDAMYCIN], the MIC was 256 µg/mL in the data set with Klebsiella pneumoniae [1] and more than 128 µg/mL with Pseudomonas aeruginosa [3].

Regarding `NC[C@H]1O[C@H](O[C@H]2[C@H](O)[C@@H](O[C@H]3O[C@H](CO)[C@@H](O)[C@H](N)[C@H]3O)[C@H](N)C[C@@H]2N)[C@H](O)[C@@H](O)[C@@H]1O` [KANAMYCIN], the MIC in the data set on Klebsiella pneumoniae [1] was 64 µg/mL; with Staphylococcus aureus [2], more than 128 µg/mL; in the data set on Pseudomonas aeruginosa [3], more than 128 µg/mL; in the data set with Escherichia coli [4], 32 µg/mL.

`C[C@H](O)[C@H]1C(=O)N2C(C(=O)NCCCC[C@@H]3NC(=O)[C@H](CCCNC(=N)N)NC(=O)[C@H](CCCNC(=N)N)NC(=O)[C@H](CCCNC(=N)N)NC(=O)[C@H](CCCNC(=N)N)NC(=O)[C@H](CCCNC(=N)N)NC(=O)[C@H](Cc4c[nH]c5ccccc45)NC(=O)[C@H](Cc4c[nH]c5ccccc45)NC(=O)[C@H](Cc4c[nH]c5ccccc45)NC(=O)[C@H](Cc4c[nH]c5ccccc45)NC3=O)=C(S[C@@H]3CN[C@H](C(=O)N(C)C)C3)[C@@H](C)[C@H]12` (cyclo(K(X1)WWWWRRRRR)): the MIC in the data set on Klebsiella pneumoniae [1] was found to be 16 µg/mL; in the data set on Staphylococcus aureus [2] it was 4 µg/mL; with Klebsiella pneumoniae [6], 4 µg/mL; in the data set with Pseudomonas aeruginosa [7], 16 µg/mL; in the data set on Pseudomonas aeruginosa [3], 16 µg/mL; in the data set with Staphylococcus aureus [9] it was 2 µg/mL. The MIC in the data set with Escherichia coli [4] was found to be 4 µg/mL; in the data set with Escherichia coli [14], 8 µg/mL. For the same compound, the Activity is 26.4% in the data set with Cell membrane [5]; “Non-Toxic” in the data set with HEK293 [8]; 29.6% with Cell membrane [10]; “Non-Toxic” with HepaRG [12]; 69% in the data set with HepaRG [15]. Also, the HC50 at 2 h in [11] was 255 µg/mL. In data set [13], the viability at 24 h worked out at 90%.

For `C[C@@H](O)[C@H]1C(=O)N2C(C(=O)O)=C(S[C@@H]3CN[C@H](C(=O)N(C)C)C3)[C@H](C)[C@H]12` [MEROPENEM], the MIC in the data set on Staphylococcus aureus [2] came to 2 µg/mL; with Klebsiella pneumoniae [6] it was 1 µg/mL; with Pseudomonas aeruginosa [7] it was 8 µg/mL; in the data set with Pseudomonas aeruginosa [3], 1 µg/mL; with Staphylococcus aureus [9] it was 2 µg/mL; in the data set on Escherichia coli [4], 1 µg/mL. The outcome with Pseudomonas aeruginosa [16], in the data set with Escherichia coli [20] and in the data set with Staphylococcus aureus [21] was Active. Besides, the Activity in the data set on Cell membrane [5] was 22.1%; with HEK293 [8], “Non-Toxic”; in the data set with Cell membrane [10], 17.2%; in the data set on HEK293 [17], “Non-Toxic”; in the data set on Cell membrane [18], 14.7%; with Cell membrane [19], 12.2%. Besides, in the data set with HepaRG [12], the Activity result is on record as “Non-Toxic”. This compound gave a 50% haemolytic concentration (HC50) at 2 h in data set [11] of more than 500 µg/mL.

As to `O=C(O)c1cn(C2CC2)c2cc(N3CCNCC3)c(F)cc2c1=O` [CIPROFLOXACIN], the MIC with Escherichia coli [4] is 64 µg/mL.

For `CN[C@H](CC(C)C)C(=O)N[C@H]1C(=O)N[C@@H](CC(N)=O)C(=O)N[C@H]2C(=O)N[C@H]3C(=O)N[C@H](C(=O)N[C@H](C(=O)O)c4cc(O)cc(O)c4-c4cc3ccc4O)[C@H](O)c3ccc(c(Cl)c3)Oc3cc2cc(c3O[C@@H]2O[C@H](CO)[C@@H](O)[C@H](O)[C@H]2O[C@H]2C[C@](C)(N)[C@H](O)[C@H](C)O2)Oc2ccc(cc2Cl)[C@H]1O` [VANCOMYCIN], the MIC in the data set with Klebsiella pneumoniae [1], in the data set with Pseudomonas aeruginosa [3] and in the data set on Escherichia coli [4] was 256 µg/mL throughout.

As to `CC[C@H](C)CCCCC(=O)N[C@@H](CCN)C(=O)N[C@H](C(=O)N[C@@H](CCN)C(=O)N[C@H]1CCNC(=O)[C@H]([C@@H](C)O)NC(=O)[C@H](CCN)NC(=O)[C@H](CCN)NC(=O)[C@H](CC(C)C)NC(=O)[C@@H](Cc2ccccc2)NC(=O)[C@H](CCN)NC1=O)[C@@H](C)O` (X2-[Dab]T[Dab][Dab][Dab][dF]L[Dab][Dab]T; lactam 4-C), the MIC with Klebsiella pneumoniae [1] came out at 1 µg/mL; with Staphylococcus aureus [2], 64 µg/mL; in the data set on Pseudomonas aeruginosa [3] it was 1 µg/mL; in the data set with Escherichia coli [4], 2 µg/mL.

With `CCCCCCCCCC(=O)N[C@@H](Cc1c[nH]c2ccccc12)C(=O)N[C@H](CC(N)=O)C(=O)N[C@@H](CC(=O)O)C(=O)N[C@@H]1C(=O)NCC(=O)N[C@@H](CCCN)C(=O)N[C@@H](CC(=O)O)C(=O)N[C@H](C)C(=O)N[C@@H](CC(=O)O)C(=O)NCC(=O)N[C@H](CO)C(=O)N[C@@H]([C@H](C)CC(=O)O)C(=O)N[C@@H](CC(=O)c2ccccc2N)C(=O)O[C@@H]1C`, the MIC with Klebsiella pneumoniae [1] was 256 µg/mL; in the data set on Pseudomonas aeruginosa [3], more than 128 µg/mL; with Escherichia coli [4] it was more than 128 µg/mL.
